We go through one compound from patent US20210139993A1, “METHOD FOR PREDICTING SURVIVAL IN CHILDREN WITH ACUTE LYMPHOBLASTIC LEUKEMIA” (UNIVERSITAT AUTONOMA DE BARCELONA, priority 2017, published 2021).

The test system of this assay is childhood ALL patients with adverse cytogenetics harboring t(9; 22). Briefly: Kaplan-Meier survival of childhood ALL patients by cytogenetic risk group. It is filed as in vivo, human. The settings on record: five of the six cases with adverse cytogenetics.

Text: One hundred and seventy-three patients diagnosed with ALL and younger than 18 years were recruited from Sant Joan de Déu Hospital, Barcelona, Spain and from Cruces Hospital, Barakaldo, Spain between 1996 and 2012. Patients were all from Caucasian descent. […] Samples were extracted when patients were at complete remission or without cytogenetic aberrations affecting chromosomes where the polymorphisms are located. Clinical data were collected at diagnosis, including sex, age, leukemia type (T-cell, B-cell or mixed), WBC count, cytogenetic risk group and treatment protocol (Table 1). The different cytogenetic risk groups were classified according to the criteria from the Spanish Society of Pediatric Hematology and Oncology as follow: Presence of t(9; 22), t(4; 11) or MLL rearrangements at 11q23, or hipodiploidy (<44 chromosomes) was considered adverse group. Presence of 412; 21) or hiperdiploidy (>50 chromosomes) was considered favorable and all other cases were considered to belong to intermediate cytogenetic risk group. […] Every genotype was analyzed separately and moreover, in case of CNVs, null genotypes were tested vs. non-null genotypes, and in case of SNPs, heterozygotes were grouped together with either homozygote genotype.

Regarding `Cc1ccc(NC(=O)c2ccc(CN3CCN(C)CC3)cc2)cc1Nc1nccc(-c2cccnc2)n1` [imatinib], the treatment outcome is listed as “successful”.
